Common to all, as to type: functional
One experiment deals with Staphylococcus aureus. The experiment in a line: Antibacterial activity against Staphylococcus aureus 209P JC1 after 20 hrs by agar dilution method. The note with it: 209P JC1, 20 h.
For experiment [1], the system named is Streptococcus pneumoniae. Put plainly: Antibacterial activity against Streptococcus pneumoniae DP1 type 1 after 20 hrs by agar dilution method. The conditions noted are these: DP1 type1, 20 h.
For experiment [2], the system named is Streptococcus pneumoniae. Put plainly: Antibacterial activity against Streptococcus pneumoniae 5 expressing constitutive ermB methylase after 20 hrs by agar dilution method. The conditions noted are these: Streptococcus pneumoniae, 5, 20 h.
Experiment [3] concerns Streptococcus pneumoniae. Put plainly: Antibacterial activity against Streptococcus pneumoniae 6 expressing constitutive ermB methylase and mefA after 20 hrs by agar dilution method. The conditions noted are these: Streptococcus pneumoniae, 6, 20 h.
Experiment [4] relates to Streptococcus pneumoniae. Put plainly: Antibacterial activity against Streptococcus pneumoniae 7 expressing constitutive ermB methylase after 20 hrs by agar dilution method. The note with it: Streptococcus pneumoniae, 7, 20 h. (In general: In agar dilution the substance is mixed into plates at graded concentrations.)
In experiment [5] the test system is Streptococcus pneumoniae. Put plainly: Antibacterial activity against Streptococcus pneumoniae 8 expressing inducible ermB methylase after 20 hrs by agar dilution method. The conditions noted are these: Streptococcus pneumoniae, 8, 20 h.
Experiment [6] concerns Streptococcus pneumoniae. Put plainly: Antibacterial activity against Streptococcus pneumoniae 9 expressing inducible ermB methylase after 20 hrs by agar dilution method. The note with it: Streptococcus pneumoniae, 9, 20 h.
In experiment [7] the test system is Streptococcus pneumoniae. The experiment in a line: Antibacterial activity against Streptococcus pneumoniae 10 expressing mefA efflux pump after 20 hrs by agar dilution method. The conditions noted are these: Streptococcus pneumoniae, 10, 20 h.
For experiment [8], the system named is Streptococcus pneumoniae. Put plainly: Antibacterial activity against Streptococcus pneumoniae 11 expressing mefA efflux pump after 20 hrs by agar dilution method. The note with it: Streptococcus pneumoniae, 11, 20 h.
Experiment [9] concerns Streptococcus pyogenes. The experiment in a line: Antibacterial activity against Streptococcus pyogenes Cook after 20 hrs by agar dilution method.
In experiment [10] the test system is Streptococcus pyogenes. The experiment in a line: Antibacterial activity against Streptococcus pyogenes 2 expressing constitutive ermB methylase after 20 hrs by agar dilution method. The conditions noted are these: Streptococcus pyogenes, 2, 20 h.
Experiment [11] deals with Streptococcus pyogenes. Put plainly: Antibacterial activity against Streptococcus pyogenes 3 expressing mefA efflux pump after 20 hrs by agar dilution method. The note with it: Streptococcus pyogenes, 3, 20 h.
Experiment [12] relates to Haemophilus influenzae. The experiment in a line: Antibacterial activity against Haemophilus influenzae 1 after 20 hrs by agar dilution method. The note with it: Haemophilus influenzae, 1, 20 h.
Experiment [13] has as its system Haemophilus influenzae. The experiment in a line: Antibacterial activity against Haemophilus influenzae 2 after 20 hrs by agar dilution method. The note with it: Haemophilus influenzae, 2, 20 h.
For experiment [14], the system named is Haemophilus influenzae. The experiment in a line: Antibacterial activity against Haemophilus influenzae 3 after 20 hrs by agar dilution method. The conditions noted are these: Haemophilus influenzae, 3, 20 h.

≈ marks a conversion by molar mass, not a printed value.

Turning to `CCNC(=O)O[C@H]1[C@H](C)O[C@@H](O[C@H]2[C@H](N(C)C)[C@@H](O)[C@H](O[C@H]3[C@@H](CC=O)C[C@@H](C)[C@@H](O)CN(C)CCC[C@H](C/C=C/c4cncc5ccccc45)OC(=O)C[C@@H](O)[C@@H]3OC)O[C@@H]2C)C[C@@]1(C)OC(=O)CC`, the MIC is 0.25 µg/mL (≈ 0.25 µM) in the experiment with Staphylococcus aureus; less than 0.008 µg/mL against Streptococcus pneumoniae [1]; 2 µg/mL (≈ 2 µM) against Streptococcus pneumoniae [2]; 4 µg/mL (≈ 4 µM) against Streptococcus pneumoniae [3]; 4 µg/mL (≈ 4 µM) in the experiment with Streptococcus pneumoniae [4]; 0.06 µg/mL (≈ 0.0599 µM) against Streptococcus pneumoniae [5]. Besides, the MIC against Streptococcus pneumoniae [6] came out at 0.06 µg/mL (≈ 0.0599 µM); in the experiment on Streptococcus pneumoniae [7], 0.015 µg/mL (≈ 0.015 µM); against Streptococcus pneumoniae [8], 0.015 µg/mL (≈ 0.015 µM); against Streptococcus pyogenes [9], 0.03 µg/mL (≈ 0.03 µM); in the experiment with Streptococcus pyogenes [10], 32 µg/mL (≈ 32 µM); against Streptococcus pyogenes [11] it was 0.13 µg/mL (≈ 0.13 µM). Besides, the MIC with Haemophilus influenzae [12] was 2 µg/mL (≈ 2 µM); with Haemophilus influenzae [13], 4 µg/mL (≈ 4 µM); against Haemophilus influenzae [14], 4 µg/mL (≈ 4 µM).

On to `CCNC(=O)O[C@H]1[C@H](C)O[C@@H](O[C@H]2[C@H](N(C)C)[C@@H](O)[C@H](O[C@H]3[C@@H](CC=O)C[C@@H](C)[C@@H](O)CN(C)CCC[C@H](C/C=C/c4ccc(N)nc4)OC(=O)C[C@@H](O)[C@@H]3OC)O[C@@H]2C)C[C@@]1(C)OC(=O)CC`, for which the MIC stood at 2 µg/mL (≈ 2.07 µM) against Staphylococcus aureus; 0.03 µg/mL (≈ 0.0311 µM) in the experiment with Streptococcus pneumoniae [1]; 4 µg/mL (≈ 4.14 µM) in the experiment with Streptococcus pneumoniae [2]; 4 µg/mL (≈ 4.14 µM) with Streptococcus pneumoniae [3]; 4 µg/mL (≈ 4.14 µM) against Streptococcus pneumoniae [4]; 0.25 µg/mL (≈ 0.259 µM) against Streptococcus pneumoniae [5]. Besides, the MIC was found to be 0.25 µg/mL (≈ 0.259 µM) against Streptococcus pneumoniae [6]; 0.06 µg/mL (≈ 0.0621 µM) with Streptococcus pneumoniae [7]; 0.13 µg/mL (≈ 0.135 µM) with Streptococcus pneumoniae [8]; 0.13 µg/mL (≈ 0.135 µM) against Streptococcus pyogenes [9]; 16 µg/mL (≈ 16.6 µM) in the experiment on Streptococcus pyogenes [10]; 0.13 µg/mL (≈ 0.135 µM) with Streptococcus pyogenes [11]. The MIC was found to be 4 µg/mL (≈ 4.14 µM) in the experiment with Haemophilus influenzae [12], 8 µg/mL (≈ 8.28 µM) with Haemophilus influenzae [13] and 16 µg/mL (≈ 16.6 µM) against Haemophilus influenzae [14].

As to `CCNC(=O)O[C@H]1[C@H](C)O[C@@H](O[C@H]2[C@H](N(C)C)[C@@H](O)[C@H](O[C@H]3[C@@H](CC=O)C[C@@H](C)[C@@H](O)CN(C)CCC[C@H](C/C=C/c4cnc(N)c5ccccc45)OC(=O)C[C@@H](O)[C@@H]3OC)O[C@@H]2C)C[C@@]1(C)OC(=O)CC`, the MIC came to 0.5 µg/mL (≈ 0.492 µM) against Staphylococcus aureus; 0.015 µg/mL (≈ 0.0148 µM) against Streptococcus pneumoniae [1]; 1 µg/mL (≈ 0.984 µM) against Streptococcus pneumoniae [2]; 1 µg/mL (≈ 0.984 µM) against Streptococcus pneumoniae [3]; 1 µg/mL (≈ 0.984 µM) with Streptococcus pneumoniae [4]; 0.06 µg/mL (≈ 0.059 µM) against Streptococcus pneumoniae [5]. In addition, the MIC with Streptococcus pneumoniae [6] was 0.03 µg/mL (≈ 0.0295 µM); against Streptococcus pneumoniae [7], 0.015 µg/mL (≈ 0.0148 µM); with Streptococcus pneumoniae [8], 0.015 µg/mL (≈ 0.0148 µM); with Streptococcus pyogenes [9], 0.03 µg/mL (≈ 0.0295 µM); in the experiment with Streptococcus pyogenes [10] it was 2 µg/mL (≈ 1.97 µM); in the experiment with Streptococcus pyogenes [11] it was 0.03 µg/mL (≈ 0.0295 µM). For the same compound, the MIC turned out to be 2 µg/mL (≈ 1.97 µM) in the experiment on Haemophilus influenzae [12], 4 µg/mL (≈ 3.94 µM) against Haemophilus influenzae [13] and 8 µg/mL (≈ 7.87 µM) with Haemophilus influenzae [14].

`CC[C@H]1OC(=O)[C@H](C)[C@@H](O[C@H]2C[C@@](C)(OC)[C@@H](O)[C@H](C)O2)[C@H](C)[C@@H](O[C@@H]2O[C@H](C)C[C@H](N(C)C)[C@H]2O)[C@](C)(OC)C[C@@H](C)C(=O)[C@H](C)[C@@H](O)[C@]1(C)O` [CLARITHROMYCIN]: the MIC against Staphylococcus aureus is 0.13 µg/mL (≈ 0.174 µM); in the experiment with Streptococcus pneumoniae [1] it was 0.03 µg/mL (≈ 0.0401 µM); in the experiment on Streptococcus pneumoniae [2] it was greater than 128 µg/mL; in the experiment on Streptococcus pneumoniae [3], greater than 128 µg/mL; against Streptococcus pneumoniae [4], greater than 128 µg/mL; in the experiment with Streptococcus pneumoniae [5] it was greater than 128 µg/mL. Moreover, the MIC with Streptococcus pneumoniae [6] is greater than 128 µg/mL; against Streptococcus pneumoniae [7] it was 1 µg/mL (≈ 1.34 µM); in the experiment with Streptococcus pneumoniae [8], 1 µg/mL (≈ 1.34 µM); with Streptococcus pyogenes [9] it was 0.03 µg/mL (≈ 0.0401 µM); in the experiment with Streptococcus pyogenes [10], greater than 128 µg/mL; against Streptococcus pyogenes [11] it was 8 µg/mL (≈ 10.7 µM). Also, the MIC with Haemophilus influenzae [12] was found to be 2 µg/mL (≈ 2.67 µM); in the experiment on Haemophilus influenzae [13] it was 8 µg/mL (≈ 10.7 µM); with Haemophilus influenzae [14], 8 µg/mL (≈ 10.7 µM).

Take `CCCC(=O)O[C@H]1[C@H](C)O[C@@H](O[C@H]2[C@H](N(C)C)[C@@H](O)[C@H](O[C@H]3[C@@H](CC=O)C[C@@H](C)[C@@H](O)/C=C/C=C/C[C@@H](C)OC(=O)C[C@@H](O)[C@@H]3OC)O[C@@H]2C)C[C@@]1(C)OC(=O)CC` [ROKITAMYCIN]: the MIC with Staphylococcus aureus is 0.13 µg/mL (≈ 0.157 µM); with Streptococcus pneumoniae [1], 0.03 µg/mL (≈ 0.0362 µM); against Streptococcus pneumoniae [2] it was greater than 128 µg/mL; against Streptococcus pneumoniae [3], greater than 128 µg/mL; in the experiment with Streptococcus pneumoniae [4], greater than 128 µg/mL; in the experiment on Streptococcus pneumoniae [5], 1 µg/mL (≈ 1.21 µM). The MIC was 1 µg/mL (≈ 1.21 µM) against Streptococcus pneumoniae [6]; 0.06 µg/mL (≈ 0.0725 µM) against Streptococcus pneumoniae [7]; 0.06 µg/mL (≈ 0.0725 µM) with Streptococcus pneumoniae [8]; 0.06 µg/mL (≈ 0.0725 µM) against Streptococcus pyogenes [9]; greater than 128 µg/mL with Streptococcus pyogenes [10]; 0.13 µg/mL (≈ 0.157 µM) against Streptococcus pyogenes [11]. Moreover, the results for the MIC against Haemophilus influenzae [12], in the experiment on Haemophilus influenzae [13] and against Haemophilus influenzae [14] were 2 µg/mL (≈ 2.42 µM), 8 µg/mL (≈ 9.66 µM) and 8 µg/mL (≈ 9.66 µM), respectively.
